Measurements published in patent publication US8703797B2, “Condensed ring pyridine compounds as subtype-selective modulators of sphingosine-1-phosphate-2 (S1P2) receptors” (Allergan, Inc., priority 2009, dated 2014).

Assays:
S1P3 = molecular target: T1, S1P3 (Homo sapiens, UniProt Q99500); assay: FLIPR calcium assay, cells expressing S1P3 and a G-protein; format: cell-based
T1 construct: expressed in transfected cells
Protocol: (§1) After removal of excess dye by washing, the cells are placed in the FLIPR TETRA instrument. Baseline fluorescence readings are taken prior to addition the compound to be tested. Agonists will trigger the receptor to interact with the G-protein, leading to an increase in intracellular calcium. The increase in intracellular calcium causes an increase in the fluorescence of the cells, due to the presence of fluo-4. This fluorescence increase is recorded by the FLIPR TETRA. After the calcium transient signal has decreased towards baseline, the standard agonist sphingosine 1-phosphate is added. If the test compound is an antagonist, an initial calcium signal will not be generated and the antagonist will prevent the generation of a calcium signal from sphingosine 1-phosphate.

S1P2 [1] = molecular target: T2, S1P2 (Homo sapiens, UniProt O95136); assay: S1P2 values marked (33P S1P); format: binding; conditions: value marked (33P S1P)
S1P1 = molecular target: T3, S1P1 (Homo sapiens, UniProt P21453); assay: FLIPR calcium assay, cells expressing S1P1 and a G-protein; format: cell-based
T3 construct: expressed in transfected cells
Protocol: as §1

S1P2 [2] = molecular target: T2, S1P2; assay: FLIPR calcium assay, cells expressing S1P2 and a G-protein; format: cell-based; conditions: for FLIPR (% Antagonism) S1P2: antagonism versus sphingosine 1-phosphate
Protocol: as §1

T2 sequence (O95136 whole entry, species assumed): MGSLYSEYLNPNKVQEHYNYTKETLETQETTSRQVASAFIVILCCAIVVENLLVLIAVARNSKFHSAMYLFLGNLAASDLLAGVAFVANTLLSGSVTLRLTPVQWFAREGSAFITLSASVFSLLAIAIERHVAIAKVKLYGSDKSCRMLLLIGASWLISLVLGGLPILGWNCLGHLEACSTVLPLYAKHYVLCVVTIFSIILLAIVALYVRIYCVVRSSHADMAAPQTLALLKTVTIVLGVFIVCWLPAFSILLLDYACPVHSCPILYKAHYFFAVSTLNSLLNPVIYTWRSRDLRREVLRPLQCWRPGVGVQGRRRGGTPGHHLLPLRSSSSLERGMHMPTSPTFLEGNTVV
T1 sequence (Q99500 whole entry, species assumed): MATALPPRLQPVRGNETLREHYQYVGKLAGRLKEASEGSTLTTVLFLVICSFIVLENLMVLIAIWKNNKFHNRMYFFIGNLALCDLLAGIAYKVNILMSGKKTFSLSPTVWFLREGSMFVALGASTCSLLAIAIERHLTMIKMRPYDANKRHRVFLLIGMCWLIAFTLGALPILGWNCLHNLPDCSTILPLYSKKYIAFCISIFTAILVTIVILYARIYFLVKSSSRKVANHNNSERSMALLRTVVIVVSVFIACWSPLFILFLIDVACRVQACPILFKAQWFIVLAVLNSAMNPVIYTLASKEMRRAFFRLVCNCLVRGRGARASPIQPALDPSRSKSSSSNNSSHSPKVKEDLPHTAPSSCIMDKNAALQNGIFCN
T3 sequence (P21453 whole entry, species assumed): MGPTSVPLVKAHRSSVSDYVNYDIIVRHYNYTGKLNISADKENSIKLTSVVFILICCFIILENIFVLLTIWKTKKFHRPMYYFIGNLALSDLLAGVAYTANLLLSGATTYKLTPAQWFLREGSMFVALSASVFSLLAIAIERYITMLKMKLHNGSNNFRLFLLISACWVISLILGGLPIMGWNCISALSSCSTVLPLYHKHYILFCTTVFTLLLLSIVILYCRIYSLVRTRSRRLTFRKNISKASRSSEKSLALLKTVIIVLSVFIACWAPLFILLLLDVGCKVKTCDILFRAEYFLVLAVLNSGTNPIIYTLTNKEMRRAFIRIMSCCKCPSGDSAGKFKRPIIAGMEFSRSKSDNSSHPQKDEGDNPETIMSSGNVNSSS

Compound	EC50 (S1P3) [nM]	EC50 (S1P2 [1]) [nM]	EC50 (S1P1) [nM]	EC50 (S1P2 [2]) [nM]	FLIPR (% Antagonism) S1P2 (S1P2 [2])
1-(2-chloro-6-propoxypyridin-4-yl)-3-((7-isopropyl-1,3-dimethyl-1H-pyrazolo[4,3-b]pyridin-5-yl)methyl)urea [Example 14]	> 8300	0.5	> 8300	–	–
CCOc1cc(NC(=O)NNc2cc(C(C)C)c3c(n2)c(C)nn3C)ccn1 [Example 18, N-(2-ethoxypyridin-4-yl)-2-(7-isopropyl-1,3-dimethyl-1H-pyrazolo[4,3-b]pyridin-5-yl)hydrazinecarboxamide]	> 8300	266	> 8300	–	–
COc1cc(OC)c(NC(=O)NNc2cc(C(C)C)c3c(n2)c(C)nn3C)cc1Cl [Example 19, N-(5-chloro-2,4-dimethoxyphenyl)-2-(7-isopropyl-1,3-dimethyl-1H-pyrazolo[4,3-b]pyridin-5-yl)hydrazinecarboxamide]	> 8300	40	> 8300	–	–
Cc1nn(C)c2c(C(C)C)cc(NNC(=O)Nc3cc(Cl)cc(Cl)c3)nc12 [Example 1, N-(3,5-dichlorophenyl)-2-(7-isopropyl-1,3-dimethyl-1H-pyrazolo[4,3-b]pyridin-5-yl)hydrazinecarboxamide]	> 8300	2.9	> 8300	47	(96) %
Cc1cc(NNC(=O)Nc2cc(Cl)nc(Cl)c2)nc2c(C)cccc12 [Example 24, N-(2,6-dichloropyridin-4-yl)-2-(4,8-dimethylquinolin-2-yl)hydrazinecarboxamide]	> 8300	390	> 8300	–	–
Cc1nn(C)c2c(C(C)C)cc(NNC(=O)Nc3cc(C(F)(F)F)cc(C(F)(F)F)c3)nc12 [Example 7, N-(3,5-bis(trifluoromethyl)phenyl)-2-(7-isopropyl-1,3-dimethyl-1H-pyrazolo[4,3-b]pyridin-5-yl)hydrazinecarboxamide]	> 8300	–	> 8300	196	(98) %
CCCCOc1cc(NC(=O)NCc2cc(C(C)C)c3c(n2)c(C)nn3C)cc(Cl)n1 [Example 17, 1-(2-butoxy-6-chloropyridin-4-yl)-3-((7-isopropyl-1,3-dimethyl-1H-pyrazolo[4,3-b]pyridin-5-yl)methyl)urea]	> 8300	0.1	> 8300	–	–
CCCOc1cc(NC(=O)NNc2cc(C(C)C)c3c(n2)c(C)nn3C)cc(Cl)n1 [Example 15, N-(2-chloro-6-propoxypyridin-4-yl)-2-(7-isopropyl-1,3-dimethyl-1H-pyrazolo[4,3-b]pyridin-5-yl)hydrazinecarboxamide]	> 8300	0.2	> 8300	–	–
Cc1ccc(C)c2c(C(C)C)cc(NNC(=O)Nc3cc(Cl)cc(Cl)c3)nc12 [Example 22, N-(3,5-dichlorophenyl)-2-(4-isopropyl-5,8-dimethylquinolin-2-yl)hydrazinecarboxamide]	> 8300	199	> 8300	–	–
Cc1nn(C)c2c(C(C)C)cc(NNC(=O)Nc3cc(Cl)nc(Cl)c3)nc12 [Example 6, N-(2,6-dichloropyridin-4-yl)-2-(7-isopropyl-1,3-dimethyl-1H-pyrazolo[4,3-b]pyridin-5-yl)hydrazinecarboxamide]	> 8300	2.2	> 8300	11	(95) %
Cc1cc(NNC(=O)Nc2cc(Cl)nc(Cl)c2)nc2ccccc12 [Example 26, N-(2,6-dichloropyridin-4-yl)-2-(4-methylquinolin-2-yl)hydrazinecarboxamide]	> 8300	196	> 8300	–	–
CCCc1cc(NC(=O)NCc2cc(C(C)C)c3c(n2)c(C)nn3C)cc(Cl)n1 [Example 12, 1-(2-chloro-6-propylpyridin-4-yl)-3-((7-isopropyl-1,3-dimethyl-1H-pyrazolo[4,3-b]pyridin-5-yl)methyl)urea]	> 8300	2.1	> 8300	24	(99) %
Cc1cc(NNC(=O)Nc2cc(Cl)cc(Cl)c2)nc2ncccc12 [Example 20, N-(3,5-dichlorophenyl)-2-(4-methyl-1,8-naphthyridin-2-yl)hydrazinecarboxamide]	> 8300	196	> 8300	–	–
Cc1nn(C)c2c(C)cc(CNC(=O)Nc3cc(Cl)cc(Cl)c3)nc12 [Example 5, 1-(3,5-dichlorophenyl)-3-((1,3,7-trimethyl-1H-pyrazolo[4,3-b]pyridin-5-yl)methyl)urea]	> 8300	–	> 8300	135	(82) %
CC(C)c1cc(NNC(=O)Nc2cc(Cl)cc(Cl)c2)nc2ncccc12 [Example 21, N-(3,5-dichlorophenyl)-2-(4-isopropyl-1,8-naphthyridin-2-yl)hydrazinecarboxamide]	> 8300	81	> 8300	–	–
Cc1cc(NNC(=O)Nc2cc(Cl)cc(Cl)c2)nc2c(C)cccc12 [Example 25, N-(3,5-dichlorophenyl)-2-(4,8-dimethylquinolin-2-yl)hydrazinecarboxamide]	> 8300	451	> 8300	–	–
CCCCOc1cc(NC(=O)NNc2cc(C(C)C)c3c(n2)c(C)nn3C)cc(Cl)n1 [Example 16, N-(2-butoxy-6-chloropyridin-4-yl)-2-(7-isopropyl-1,3-dimethyl-1H-pyrazolo[4,3-b]pyridin-5-yl)hydrazinecarboxamide]	> 8300	0.1	> 8300	–	–
CCCCc1cc(NC(=O)NNc2cc(C(C)C)c3c(n2)c(C)nn3C)cc(Cl)n1 [Example 3, N-(2-butyl-6-chloropyridin-4-yl)-2-(7-isopropyl-1,3-dimethyl-1H-pyrazolo[4,3-b]pyridin-5-yl)hydrazinecarboxamide]	> 8300	5.7	> 8300	8	(99) %
COc1cc(NC(=O)NCc2cc(C(C)C)c3c(n2)c(C)nn3C)cc(Cl)n1 [Example 10, 1-(2-chloro-6-methoxypyridin-4-yl)-3-((7-isopropyl-1,3-dimethyl-1H-pyrazolo[4,3-b]pyridin-5-yl)methyl)urea]	> 8300	9.9	> 8300	58	(98) %
CCOc1cc(NC(=O)NNc2cc(C(C)C)c3c(n2)c(C)nn3C)cc(Cl)n1 [Example 4, N-(2-chloro-6-ethoxypyridin-4-yl)-2-(7-isopropyl-1,3-dimethyl-1H-pyrazolo[4,3-b]pyridin-5-yl)hydrazinecarboxamide]	> 8300	1.5	> 8300	–	–
CC(C)c1cc(NNC(=O)Nc2cc(Cl)cc(Cl)c2)nc2ccccc12 [Example 23, N-(3,5-dichlorophenyl)-2-(4-isopropylquinolin-2-yl)hydrazinecarboxamide]	> 8300	188	> 8300	–	–
Cc1nn(C)c2c(C(C)C)cc(CNC(=O)Nc3cc(Cl)cc(Cl)c3)nc12 [Example 9]	> 8300	26.4	> 8300	149	(52) %
CCOc1cc(NC(=O)NCc2cc(C(C)C)c3c(n2)c(C)nn3C)cc(Cl)n1 [Example 13, 1-(2-chloro-6-ethoxypyridin-4-yl)-3-((7-isopropyl-1,3-dimethyl-1H-pyrazolo[4,3-b]pyridin-5-yl)methyl)urea]	> 8300	0.5	> 8300	–	–
Cc1ccc(C)c2c(C)cc(NNC(=O)Nc3cc(Cl)cc(Cl)c3)nc12 [Example 27, N-(3,5-dichlorophenyl)-2-(4,5,8-trimethylquinolin-2-yl)hydrazinecarboxamide]	> 8300	386	> 8300	–	–
CCCc1cc(NC(=O)NNc2cc(C(C)C)c3c(n2)c(C)nn3C)cc(Cl)n1 [Example 11, N-(2-chloro-6-propylpyridin-4-yl)-2-(7-isopropyl-1,3-dimethyl-1H-pyrazolo[4,3-b]pyridin-5-yl)hydrazinecarboxamide]	> 8300	5	> 8300	9	(98) %
Cc1nn(C)c2c(C(C)C)cc(CNC(=O)Nc3cc(Cl)nc(Cl)c3)nc12 [Example 2, 1-(2,6-dichloropyridin-4-yl)-3-((7-isopropyl-1,3-dimethyl-1H-pyrazolo[4,3-b]pyridin-5-yl)methyl)urea]	> 8300	23.8	> 8300	118	(91) %
